Patent US20240336612A1, “BRM Targeting Compounds And Associated Methods Of Use” (Prelude Therapeutics Incorporated, priority 2021, published 2024)

Assays:
SMARCA2 = molecular target: T1, SMARCA2 (Homo sapiens, UniProt P51531); experiment: SMARCA2 HiBiT degradation assay in HeLa cells; assay type: cell-based; details: 18 hours incubation; for DC50: read-out: DC50 (SM2-HeLa), SMARCA2 degradation potency; for Dmax: read-out: Dmax % (SM2-HeLa), maximum SMARCA2 degradation within the concentrations tested
T1 construct: SMARCA2-HiBiT knock-in Hela monoclonal cell (CS302366); host or cells: HeLa (HiBiT knock-in monoclonal line)
Method: (§1) SMARCA2 HiBiT and SMARCA4 HiBiT Degradation Assay (cellular)
(§2) Preparation of SMARCA2/4-HiBiT Knock-In Cells
(§3) SMARCA2-HiBiT knock-in Hela monoclonal cell (CS302366) and SMARCA4-HiBiT knock-in Hela monoclonal cell (CS3023226) were purchased from Promega. The heterozygous HiBiT-knock-in was confirmed by sanger sequence in both SMARCA2-HiBiT and SMARCA4-HiBiT monoclonal cells.
(§4) SMARCA2 HiBiT and SMARCA4 HiBiT Degradation Assay in HeLa Cells
(§5) Dispense 10 μL aliquot of prepared Hela-SMARCA2-HiBiT or Hela-SMARCA4-HiBiT cells (1:1 ratio of cells:Trypan Blue (#1450013, Bio-Rad)) onto cell counting slide (#145-0011, Bio-Rad) and obtain cell density and cell viability using cell counter (TC20, Bio-Rad). Remove appropriate volume of resuspended cells from culture flask to accommodate 2500 cells/well @ 20 μL/well. Transfer Hela-HiBiT cells to 50 ml conical (#430290, Corning). Spin down at 1000 rpm for 5 min using tabletop centrifuge (SPINCHRON 15, Beckman). Discard supernatant and resuspend cell pellet in modified EMEM (#30-2003, ATCC) cell culture media containing 10% FBS (F2422-500ML, Sigma), and 1× Penicillin/Streptomycin (200 g/l) (30-002-CI, Corning) to a cell density of 125,000 cells/ml. Dispense 20 μL of resuspended Hela-HiBit cells per well in 384-well TC treated plate (#12-565-343, Thermo Scientific) using standard cassette (#50950372, Thermo Scientific) on Multidrop Combi (#5840310, Thermo Scientific) inside laminar flow cabinet. Dispense test compounds onto plates using digital liquid dispenser (D300E, Tecan). Incubate plates in humidified tissue culture incubator @37° C. for 18 hours. Add 20 ul of prepared Nano-Glo® HiBiT Lytic detection buffer (N3050, Promega) to each well of 384-well plate using small tube cassette (#24073295, Thermo Scientific) on Multidrop Combi, incubate @ RT for 30-60 min. Read plates on microplate reader (Envision 2105, PerkinElmer) using 384 well Ultra-Sensitive luminescence mode. Raw data files and compound information reports are swept into centralized data lake and deconvoluted using automated scripts designed by TetraScience, Inc. Data analysis, curve-fitting and reporting done in Dotmatics Informatics Suite using Screening Ultra module.
(§6) The results are shown below in Table 4 for the HiBiT assay. In Table 4, the DC50/Dmax% (SM2-HeLa) refers to SMARCA2 degradation potency/maximum SMARCA2 degradation within the concentrations tested in HeLa HiBiT assay. In Table 4, the DC50/Dmax% (SM4-HeLa) refers to SMARCA4 degradation potency/maximum SMARCA4 degradation within the concentrations tested in HeLa HiBiT assay.

SMARCA4 = molecular target: T2, SMARCA4 (Homo sapiens, UniProt P51532); experiment: SMARCA4 HiBiT degradation assay in HeLa cells; assay type: cell-based; details: 18 hours incubation; for DC50: read-out: DC50 (SM4-HeLa), SMARCA4 degradation potency; for Dmax: read-out: Dmax % (SM4-HeLa), maximum SMARCA4 degradation within the concentrations tested
T2 construct: SMARCA4-HiBiT knock-in Hela monoclonal cell (CS3023226); host or cells: HeLa (HiBiT knock-in monoclonal line)
Method: as §1, §2, §3, §4, §5, §6

T1 sequence (P51531 whole entry): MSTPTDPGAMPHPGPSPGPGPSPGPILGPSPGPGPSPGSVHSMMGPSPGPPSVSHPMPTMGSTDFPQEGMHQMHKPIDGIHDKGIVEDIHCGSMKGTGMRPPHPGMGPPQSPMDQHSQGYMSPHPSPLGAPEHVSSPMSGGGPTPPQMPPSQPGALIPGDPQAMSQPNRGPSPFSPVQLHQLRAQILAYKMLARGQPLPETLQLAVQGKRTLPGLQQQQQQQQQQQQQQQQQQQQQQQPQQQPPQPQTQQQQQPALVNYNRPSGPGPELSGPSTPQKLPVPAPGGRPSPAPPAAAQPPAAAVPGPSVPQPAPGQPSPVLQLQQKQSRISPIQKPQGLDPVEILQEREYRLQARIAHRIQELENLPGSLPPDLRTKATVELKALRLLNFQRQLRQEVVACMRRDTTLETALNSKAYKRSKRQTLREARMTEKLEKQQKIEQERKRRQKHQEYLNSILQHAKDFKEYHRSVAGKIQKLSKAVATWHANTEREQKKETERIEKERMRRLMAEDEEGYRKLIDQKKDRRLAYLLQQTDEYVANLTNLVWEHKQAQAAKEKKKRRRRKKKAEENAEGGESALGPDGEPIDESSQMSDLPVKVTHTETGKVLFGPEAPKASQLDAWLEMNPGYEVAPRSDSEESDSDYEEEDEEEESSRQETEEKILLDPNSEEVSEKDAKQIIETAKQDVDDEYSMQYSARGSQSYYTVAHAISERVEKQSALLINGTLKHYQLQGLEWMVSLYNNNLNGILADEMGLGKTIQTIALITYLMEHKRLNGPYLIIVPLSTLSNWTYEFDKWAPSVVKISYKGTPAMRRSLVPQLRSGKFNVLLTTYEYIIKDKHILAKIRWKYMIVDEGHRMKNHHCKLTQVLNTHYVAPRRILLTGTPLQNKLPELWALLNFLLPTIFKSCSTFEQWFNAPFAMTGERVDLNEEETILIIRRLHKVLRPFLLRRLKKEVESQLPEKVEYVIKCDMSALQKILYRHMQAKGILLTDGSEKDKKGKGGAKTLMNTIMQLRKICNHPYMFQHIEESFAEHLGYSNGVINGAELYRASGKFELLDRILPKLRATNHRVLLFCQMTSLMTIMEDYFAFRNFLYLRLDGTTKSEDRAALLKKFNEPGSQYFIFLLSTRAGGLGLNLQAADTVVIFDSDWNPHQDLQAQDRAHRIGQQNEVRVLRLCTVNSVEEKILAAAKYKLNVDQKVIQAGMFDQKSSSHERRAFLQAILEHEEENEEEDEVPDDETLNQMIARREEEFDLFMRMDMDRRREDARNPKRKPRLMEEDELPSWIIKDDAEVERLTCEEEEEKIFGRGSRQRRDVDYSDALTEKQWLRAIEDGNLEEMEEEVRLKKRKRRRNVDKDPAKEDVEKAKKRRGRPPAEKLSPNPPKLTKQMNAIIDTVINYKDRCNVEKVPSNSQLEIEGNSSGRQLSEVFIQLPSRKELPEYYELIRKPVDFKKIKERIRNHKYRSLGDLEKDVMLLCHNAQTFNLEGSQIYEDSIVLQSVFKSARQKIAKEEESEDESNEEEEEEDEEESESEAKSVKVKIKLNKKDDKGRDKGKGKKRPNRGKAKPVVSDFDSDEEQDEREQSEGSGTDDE
T2 sequence (P51532 whole entry): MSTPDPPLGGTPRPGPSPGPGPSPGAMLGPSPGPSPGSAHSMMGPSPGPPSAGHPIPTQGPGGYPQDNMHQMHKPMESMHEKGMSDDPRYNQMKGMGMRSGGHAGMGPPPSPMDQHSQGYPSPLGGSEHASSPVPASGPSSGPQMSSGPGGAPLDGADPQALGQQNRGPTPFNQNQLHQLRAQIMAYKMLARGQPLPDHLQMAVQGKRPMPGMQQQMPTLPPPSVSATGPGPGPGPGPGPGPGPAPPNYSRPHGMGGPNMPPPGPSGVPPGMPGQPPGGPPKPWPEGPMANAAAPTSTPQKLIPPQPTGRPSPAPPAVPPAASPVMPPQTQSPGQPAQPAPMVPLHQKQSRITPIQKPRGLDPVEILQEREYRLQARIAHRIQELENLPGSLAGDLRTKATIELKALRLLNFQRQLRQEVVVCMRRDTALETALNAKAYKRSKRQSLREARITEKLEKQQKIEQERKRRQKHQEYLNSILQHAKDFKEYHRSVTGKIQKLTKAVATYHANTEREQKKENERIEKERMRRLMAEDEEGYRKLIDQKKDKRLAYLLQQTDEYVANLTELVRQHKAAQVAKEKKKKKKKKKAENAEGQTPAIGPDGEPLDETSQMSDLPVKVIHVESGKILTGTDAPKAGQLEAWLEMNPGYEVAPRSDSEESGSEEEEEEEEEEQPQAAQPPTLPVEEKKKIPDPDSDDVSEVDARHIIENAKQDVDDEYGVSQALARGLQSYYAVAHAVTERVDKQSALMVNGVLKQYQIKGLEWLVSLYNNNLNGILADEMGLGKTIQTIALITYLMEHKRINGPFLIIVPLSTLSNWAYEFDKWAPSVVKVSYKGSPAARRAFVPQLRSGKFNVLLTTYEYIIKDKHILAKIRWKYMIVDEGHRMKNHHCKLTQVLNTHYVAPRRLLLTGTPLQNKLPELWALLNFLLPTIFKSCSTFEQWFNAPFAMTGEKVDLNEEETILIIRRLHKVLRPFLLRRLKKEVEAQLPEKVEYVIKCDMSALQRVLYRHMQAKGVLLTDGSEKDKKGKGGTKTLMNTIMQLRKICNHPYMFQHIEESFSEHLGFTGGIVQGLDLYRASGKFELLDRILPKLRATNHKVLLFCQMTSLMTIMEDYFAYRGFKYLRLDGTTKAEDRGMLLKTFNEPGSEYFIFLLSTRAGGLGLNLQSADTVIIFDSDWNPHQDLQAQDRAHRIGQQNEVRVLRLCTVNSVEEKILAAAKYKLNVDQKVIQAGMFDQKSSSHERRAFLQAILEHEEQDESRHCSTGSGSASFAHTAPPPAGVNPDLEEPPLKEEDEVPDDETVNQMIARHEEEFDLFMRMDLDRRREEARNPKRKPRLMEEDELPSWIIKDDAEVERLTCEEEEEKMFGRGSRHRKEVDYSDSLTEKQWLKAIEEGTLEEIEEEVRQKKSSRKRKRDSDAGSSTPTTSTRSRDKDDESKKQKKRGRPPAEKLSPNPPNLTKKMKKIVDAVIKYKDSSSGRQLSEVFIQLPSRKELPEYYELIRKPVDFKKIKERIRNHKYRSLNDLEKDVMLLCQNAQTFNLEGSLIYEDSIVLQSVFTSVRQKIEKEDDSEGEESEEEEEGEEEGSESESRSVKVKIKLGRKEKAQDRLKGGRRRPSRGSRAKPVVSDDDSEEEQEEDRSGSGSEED

| Compound | DC50 (SMARCA2) | Dmax (SMARCA2) | DC50 (SMARCA4) | Dmax (SMARCA4) |
| --- | --- | --- | --- | --- |
| Cc1ncsc1-c1ccc([C@H](C)NC(=O)[C@@H]2C[C@@H](O)CN2C(=O)[C@@H](c2cc(OCCN3CCC(N4CCC5(CC4)CNc4nnc(-c6ccccc6O)cc45)C3)no2)C(C)C)cc1 (stereo partly drawn) [Example 1, (2S,4R)-4-hydroxy-1-((2R)-2-(3-(2-(3-(3′-(2-hydroxyphenyl)-6′,7′-dihydrospiro[piperidine-4,5′-pyrrolo[2,3-c]pyridazin]-1-yl)pyrrolidin-1-yl)ethoxy)isoxazol-5-yl)-3-methylbutanoyl)-N-((S)-1-(4-(4-methylthiazol-5-yl)phenyl)ethyl) pyrrolidine-2-carboxamide] | < 0.1 µM | > 75% | ≥ 10 µM | ≤ 50% |
| Cc1ncsc1-c1ccc([C@H](C)NC(=O)[C@@H]2C[C@@H](O)CN2C(=O)[C@@H](c2cc(OCCN3CCC(N4CCC5(CC4)CNc4nnc(-c6ccccc6O)cc4N5)C3)no2)C(C)C)cc1 (stereo partly drawn) [Example 6, (2S,4R)-4-hydroxy-1-((2R)-2-(3-(2-(3-(3′-(2-hydroxyphenyl)-7′,8′-dihydro-5′H-spiro [piperidine-4,6′-pyrazino[2,3-c]pyridazin]-1-yl)pyrrolidin-1-yl)ethoxy)isoxazol-5-yl)-3-methylbutanoyl)-N-((S)-1-(4-(4-methylthiazol-5-yl)phenyl)ethyl) pyrrolidine-2-carboxamide] | 1 to 10 µM | ≤ 50% | 0.1 to 1 µM | > 75% |
| Cc1ncsc1-c1ccc([C@H](C)NC(=O)[C@@H]2C[C@@H](O)CN2C(=O)[C@@H](c2cc(OCCN3CCC(CN4CCC5(CC4)CNc4nnc(-c6ccccc6O)cc45)CC3)no2)C(C)C)cc1 [Example 3, (2S,4R)-4-hydroxy-1-((R)-2-(3-(2-(4-((3′-(2-hydroxyphenyl)-6′,7′-dihydrospiro[piperidine-4,5′-pyrrolo[2,3-c]pyridazin]-1-yl)methyl)piperidin-1-yl)ethoxy)isoxazol-5-yl)-3-methylbutanoyl)-N-((S)-1-(4-(4-methylthiazol-5-yl)phenyl)ethyl) pyrrolidine-2-carboxamide] | < 0.1 µM | 50 to 75% | ≥ 10 µM | ≤ 50% |
| Cc1ncsc1-c1ccc([C@H](C)NC(=O)[C@@H]2C[C@@H](O)CN2C(=O)[C@@H](c2cc(OCCN3CCC(N4CCCC5(CNc6nnc(-c7ccccc7O)cc6N5)C4)C3)no2)C(C)C)cc1 (stereo partly drawn) [Example 4, (2S,4R)-4-hydroxy-1-((2R)-2-(3-(2-(3-(3′-(2-hydroxyphenyl)-7′,8′-dihydro-5′H-spiro[piperidine-3,6′-pyrazino[2,3-c]pyridazin]-1-yl)pyrrolidin-1-yl)ethoxy)isoxazol-5-yl)-3-methylbutanoyl)-N-((S)-1-(4-(4-methylthiazol-5-yl)phenyl)ethyl) pyrrolidine-2-carboxamide] | < 0.1 µM | 50 to 75% | < 0.1 µM | > 75% |

Continued, values first:

| DC50 (SMARCA2) | Dmax (SMARCA2) | DC50 (SMARCA4) | Dmax (SMARCA4) | Compound |
| --- | --- | --- | --- | --- |
| < 0.1 µM | > 75% | < 0.1 µM | > 75% | Cc1ncsc1-c1ccc([C@H](C)NC(=O)[C@@H]2C[C@@H](O)CN2C(=O)[C@@H](c2cc(OCCN3CCC(CN4CCC5(CC4)CNc4nnc(-c6ccccc6O)cc4N5)CC3)no2)C(C)C)cc1 [Example 8, (2S,4R)-4-hydroxy-1-((R)-2-(3-(2-(4-((3′-(2-hydroxyphenyl)-7′,8′-dihydro-5′H-spiro [piperidine-4,6′-pyrazino[2,3-c]pyridazin]-1-yl)methyl)piperidin-1-yl)ethoxy)isoxazol-5-yl)-3-methylbutanoyl)-N-((S)-1-(4-(4-methylthiazol-5-yl)phenyl)ethyl) pyrrolidine-2-carboxamide] |
| < 0.1 µM | 50 to 75% | < 0.1 µM | > 75% | Cc1ncsc1-c1ccc([C@H](C)NC(=O)[C@@H]2C[C@@H](O)CN2C(=O)[C@@H](c2cc(OCCN3CCC(N4CCCC5(CNc6nnc(-c7ccccc7O)cc6N5)C4)CC3)no2)C(C)C)cc1 (stereo partly drawn) [Example 5, (2S,4R)-4-hydroxy-1-((2R)-2-(3-(2-(4-(3′-(2-hydroxyphenyl)-7′,8′-dihydro-5′H-spiro[piperidine-3,6′-pyrazino[2,3-c]pyridazin]-1-yl)piperidin-1-yl)ethoxy)isoxazol-5-yl)-3-methylbutanoyl)-N-((S)-1-(4-(4-methylthiazol-5-yl)phenyl)ethyl) pyrrolidine-2-carboxamide] |
| < 0.1 µM | 50 to 75% | < 0.1 µM | > 75% | Cc1ncsc1-c1ccc([C@H](C)NC(=O)[C@@H]2C[C@@H](O)CN2C(=O)[C@@H](c2cc(OCCN3CCC(N4CCC5(CC4)CNc4nnc(-c6ccccc6O)cc4N5)CC3)no2)C(C)C)cc1 [Example 2, (2S,4R)-4-hydroxy-1-((R)-2-(3-(2-(4-(3′-(2-hydroxyphenyl)-7′,8′-dihydro-5′H-spiro[piperidine-4,6′-pyrazino[2,3-c]pyridazin]-1-yl)piperidin-1-yl)ethoxy)isoxazol-5-yl)-3-methylbutanoyl)-N-((S)-1-(4-(4-methylthiazol-5-yl)phenyl)ethyl) pyrrolidine-2-carboxamide] |
| < 0.1 µM | > 75% | < 0.1 µM | > 75% | Cc1ncsc1-c1ccc([C@H](C)NC(=O)[C@@H]2C[C@@H](O)CN2C(=O)[C@@H](c2cc(OCCN3CCC(CN4CCCC5(CNc6nnc(-c7ccccc7O)cc6N5)C4)CC3)no2)C(C)C)cc1 (stereo partly drawn) [Example 7, (2S,4R)-4-hydroxy-1-((2R)-2-(3-(2-(4-((3′-(2-hydroxyphenyl)-7′,8′-dihydro-5′H-spiro[piperidine-3,6′-pyrazino[2,3-c]pyridazin]-1-yl)methyl)piperidin-1-yl)ethoxy)isoxazol-5-yl)-3-methylbutanoyl)-N-((S)-1-(4-(4-methylthiazol-5-yl)phenyl)ethyl) pyrrolidine-2-carboxamide] |
